Results on 5 molecules are retold here after ChEMBL document CHEMBL1150120, “New vibsane diterpenes and lupane triterpenes from Viburnum odoratissimum” (2002).

*1 amine or outer side, *2 acyl side, *3 side chain or, on linkers, in order; H or OH if unused. Where a SMILES comes first, the peptide text is derived from it. Bridges are numbered along the chain shown (N, C = ends). Roman numbers before positions name the chains, in order. [ ]: non-standard residue; d: D form. Actinocin(1to9) = Cc1c2oc3c(C)ccc(C(=O)[*:2])c3nc-2c(C(=O)[*:1])c(N)c1=O; NMeV = CN[C@H](C(=O)O)C(C)C; Sar = CNCC(=O)O

Test [1] relates to NUGC. The test can be described thus: Cytotoxicity against human NUGC cells assessed as cell growth at 10 uM after 3 to 24 hrs by MTS assay. The test is classed as functional. As to conditions: read-out: Activity. A general note: Tetrazolium assays rely on reduction of a dye to a coloured formazan, in cell work by metabolically active cells.
Test [2] deals with NUGC. The test can be described thus: Cytotoxicity against human NUGC cells assessed as cell growth at 5 uM after 3 to 24 hrs by MTS assay. The test is classed as functional. As to conditions: read-out: Activity.

With `C=C(C)C(O)CC[C@]1(C)/C=C/[C@@H](OC(=O)C=C(C)C)[C@](C)(O)/C=C/C(=O)/C(CO)=C\C1` (stereo not given in full) [VIBSANOL B], the growth at 10 µM in test [1] is above 50%.

`C=C(C)[C@@H]1CC[C@]2(C(=O)O)CC[C@]3(C(=O)O)[C@H](CC[C@@H]4[C@@]5(C)CCC(=O)C(C)(C)[C@@H]5[C@@H](O)C[C@]43C)[C@@H]12`: the growth at 10 µM in test [1] was above 50%.

Consider `Cc1c2oc3c(C)ccc(C(=O)N[C@@H]4C(=O)N[C@H](C(C)C)C(=O)N5CCC[C@H]5C(=O)N(C)CC(=O)N(C)[C@@H](C(C)C)C(=O)O[C@@H]4C)c3nc-2c(C(=O)N[C@@H]2C(=O)N[C@H](C(C)C)C(=O)N3CCC[C@H]3C(=O)N(C)CC(=O)N(C)[C@@H](C(C)C)C(=O)O[C@@H]2C)c(N)c1=O` [DACTINOMYCIN] (I: T[dV]P[Sar][NMeV] / II: T[dV]P[Sar][NMeV]; ester I:1-I:C, II:1-II:C; linker I:N-II:N via Actinocin(1to9)), for which the growth at 5 µM in test [2] worked out at 0%. With `CC(C)=CC(=O)O[C@@H]1/C=C/[C@@](C)(C/C=C/C(C)(C)O)C/C=C(/CO)C(=O)/C=C/[C@@]1(C)O` [VABSANOL A], the growth at 10 µM in test [1] was found to be 15%. `C=C(C)[C@@H]1CC[C@]2(C(=O)O)CC[C@]3(C(=O)O)[C@H](CC[C@@H]4[C@@]5(C)CCC(=O)C(C)(C)[C@@H]5[C@H](O)C[C@]43C)[C@@H]12`: the growth at 10 µM in test [1] came to 20%.
